This is an account of results in ChEMBL document CHEMBL5104151, “Synthesis of new pyrazolo[4,3-a]phenanthridine Pim-1 inhibitors and evaluation of their cytotoxic activity towards the MOLM-13 acute myeloid leukemia cell line” (Bioorg Med Chem Lett, 2022).

As a reminder, the EC50 is the midpoint of the concentration-response curve. Broadly, the IC50 is the point on the concentration scale where inhibition reaches its midpoint.

Data set [1] relates to MOLM-13. Description: Antiproliferative activity against human MOLM-13 cells measured after 72 hrs by WST-1 assay. Type of data set: functional, cell-based. The following applies: MOLM-13, 72 h. On the technique in general: Tetrazolium assays rely on reduction of a dye to a coloured formazan, in cell work by metabolically active cells.
Data set [2] relates to MOLM-13. Description: Induction of apoptosis in human MOLM-13 cells incubated for 72 hrs and assessed as presence of apoptotic nuclei. In kind it is functional, cell-based. The following applies: MOLM-13, 72 h.
The test system of data set [3] is MOLM-13. Description: Antiproliferative activity against human MOLM-13 cells measured after 24 hrs by WST-1 assay. Type of data set: functional, cell-based. The following applies: MOLM-13, 24 h.
Data set [4] can be described thus: Cytotoxicity against rat NRK cells measured after 72 hrs by WST-1 assay. Type of data set: toxicity, cell-based.
Data set [5] concerns the target T1, Serine/threonine-protein kinase pim-1 (Homo sapiens, UniProt P11309). Description: Inhibition of full-length human Pim-1 using RSRHSSYPAG as substrate incubated in presence of [gamma33P]ATP and assessed as residual activity at 1 uM relative to control.
Target sequence in this assay (P11309 whole entry, looked up): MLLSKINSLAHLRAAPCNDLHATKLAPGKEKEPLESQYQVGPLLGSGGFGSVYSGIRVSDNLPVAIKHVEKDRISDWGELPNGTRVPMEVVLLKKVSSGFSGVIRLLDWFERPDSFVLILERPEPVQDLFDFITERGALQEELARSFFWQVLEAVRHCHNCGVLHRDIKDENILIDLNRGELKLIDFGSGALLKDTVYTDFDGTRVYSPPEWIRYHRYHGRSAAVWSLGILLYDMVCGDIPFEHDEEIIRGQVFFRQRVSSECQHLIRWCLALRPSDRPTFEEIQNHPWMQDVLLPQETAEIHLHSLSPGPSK
The target in data set [6] is T1, Serine/threonine-protein kinase pim-1. Description: Inhibition of full-length human Pim-1 using RSRHSSYPAG as substrate incubated in presence of [gamma33P]ATP and assessed as residual activity at 10 uM relative to control.
Target sequence in this assay (P11309 whole entry, looked up): as above
Data set [7] has the same target. Kind of data set: Inhibition of full-length human Pim-1 using RSRHSSYPAG as substrate incubated in presence of [gamma33P]ATP.
Target sequence in this assay (P11309 whole entry): as the sequence (P11309 whole entry, looked up) above

As to `O=[N+]([O-])c1cc2[nH]ncc2c2c1ncc1ccccc12`, the half-maximal effective concentration (EC50) with MOLM-13 [1] came out at 0.2 µM; with MOLM-13 [2] it was 3.7 µM; with MOLM-13 [3] it was 0.8 µM. In data set [4], the EC50 at 72 h was over 30 µM.

Regarding `COC(=O)c1cc2[nH]ncc2c2c1ncc1ccccc12`, the 50% effective concentration (EC50) in the data set on MOLM-13 [1] came out at 30 µM; in the data set with MOLM-13 [2], 61 µM; in the data set with MOLM-13 [3] it was 50 µM. Besides, the values for the Activity in data set [5] and in data set [6] were 38% and 21%, respectively.

`C=Cc1n[nH]c2cc([N+](=O)[O-])c3ncc4ccccc4c3c12`: the EC50 was 1.7 µM with MOLM-13 [1], 4.6 µM in the data set with MOLM-13 [2] and 2.9 µM in the data set on MOLM-13 [3]. The IC50 in data set [7] stood at 0.031 µM. The figures for the Activity in data set [5] and in data set [6] were 5.3% and 1.5%, respectively. In data set [4], this molecule came in with an EC50 at 72 h of 24 µM.

In the case of `O=[N+]([O-])c1cc2[nH]nc(I)c2c2c1ncc1ccccc12`, the 50% effective concentration (EC50) in the data set with MOLM-13 [1] came to 1.7 µM; with MOLM-13 [2], 6.6 µM; in the data set with MOLM-13 [3], 3.5 µM. Further, in data set [7], the IC50 came to 0.05 µM. Also, the results for the Activity in data set [5] and in data set [6] were 8.6% and 1.4%, respectively. This molecule also displayed a concentration giving a half-maximal response (EC50) at 72 h in data set [4] of 28 µM.

As for `O=C(O)c1cc2[nH]ncc2c2c1ncc1ccccc12`, the 50% effective concentration (EC50) in the data set on MOLM-13 [1] is 62 µM; in the data set with MOLM-13 [2], over 250 µM; in the data set on MOLM-13 [3] it was over 250 µM. Besides, the Activity in data set [5] stood at 77%; in data set [6], 29%.

Take `FC(F)(F)c1cc2[nH]ncc2c2c1ncc1ccccc12`: the results for the EC50 in the data set on MOLM-13 [1] and in the data set on MOLM-13 [2] were 1.2 µM and over 250 µM, respectively. Further, the results for the Activity in data set [5] and in data set [6] were 43% and 18%, respectively.

On to `NC(=O)c1cc2[nH]ncc2c2c1ncc1ccccc12`, for which the EC50 in the data set with MOLM-13 [1] was 2.5 µM; in the data set with MOLM-13 [2], over 250 µM. The IC50 in data set [7] amounted to 0.125 µM. Moreover, the Activity in data set [5] came to 23%; in data set [6], 7%.
